Data on 31 compounds can be found in patent publication US12213970B2, “Pyridinyl sulfonamide derivatives, pharmaceutical compositions and uses thereof” (Boehringer Ingelheim International GmbH, priority 2018, dated 2025).

Structures are written as SMILES. Counter-ions that a name gives are not always drawn. Where only a bound is given, the exact number is not on record here.

Assay [1] deals with T1, MAO-A (Homo sapiens, UniProt P21397).
T1 construct: purchased Sigma-Aldrich M7316
T1 sequence (P21397 1-527): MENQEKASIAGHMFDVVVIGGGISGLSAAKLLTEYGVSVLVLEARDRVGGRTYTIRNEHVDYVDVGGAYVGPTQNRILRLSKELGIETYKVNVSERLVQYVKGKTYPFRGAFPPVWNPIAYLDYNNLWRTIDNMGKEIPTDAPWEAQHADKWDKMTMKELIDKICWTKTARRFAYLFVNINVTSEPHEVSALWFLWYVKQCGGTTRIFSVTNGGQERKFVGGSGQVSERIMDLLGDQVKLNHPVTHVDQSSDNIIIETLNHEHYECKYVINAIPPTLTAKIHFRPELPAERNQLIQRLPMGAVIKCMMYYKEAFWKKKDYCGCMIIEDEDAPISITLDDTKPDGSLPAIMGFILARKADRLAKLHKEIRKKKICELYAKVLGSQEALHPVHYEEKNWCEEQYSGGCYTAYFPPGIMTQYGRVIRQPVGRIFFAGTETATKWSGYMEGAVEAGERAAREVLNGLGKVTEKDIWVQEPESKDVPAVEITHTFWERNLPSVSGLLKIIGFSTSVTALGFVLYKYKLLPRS
As to the kind of experiment: MAO-A biochemical assay (MAO-Glo). To be noted: IC50; read-out: MAO-A. An excerpt:
(§1) The MAO-Glo™ Assay (commercially available from PROMEGA, #V1402) provides a sensitive method for the measurement of monoamine oxidase (MAO) activity (Valley, M. P. et al., 2006, Anal. Biochem. 359: 238-246) from a variety of tissues, biofluids or recombinant expressed or purified enzymes. As substrate a derivate of the beetle luciferin ((4S)-4,5-dihydro-2-(6-hydroxybenzothiazolyl)-4-thiazole-carboxylic acid) is used, which is oxidized at a primary amine moiety. After a spontaneous elimination and a catalyzed esterase reaction, the turnover of luciferin by the luciferase is recorded as a signal of MAO-A activity.
An aliquot of 3 μL of the compound dilution is added to a 384 well plate (Optiplate, PS, flat bottom F, black, PERKIN ELMER, #6007270) in a DMSO concentration of 1.025%.
A MAO-A enzyme aliquot (M7316, Sigma-Aldrich) is thawed on ice, diluted in reaction buffer to 1.25 mU/μL and added in a volume of 5 μL to the wells. After incubation for 20 minutes at 37° C., 2 μL of MAO substrate (dissolved in DMSO at 16 mM, diluted to 20 μM in assay buffer to obtain a final assay concentration of 4 μM) is added, mixed, and the mixture further incubated for 60 minutes at 37° C.
The turnover of the substrate is determined by the addition of 10 μL of the Detection Reagent mix which was generated by the addition of reconstitution buffer with esterase (PROMEGA, #V1402) to the luciferin detection reagent (PROMEGA, #V1402). After an incubation period of 20 minutes at 37° C., the luminescent signal is measured with a […], e.g. Envision 2104 Multilabel Reader (PERKIN ELMER).

Assay [2] concerns the target T2, human AOC3 enzyme (recombinant CHO cells) (Homo sapiens, UniProt Q16853).
T2 construct: expressed in transfected cells; host or cells: CHO cells
T2 sequence (Q16853 1-763): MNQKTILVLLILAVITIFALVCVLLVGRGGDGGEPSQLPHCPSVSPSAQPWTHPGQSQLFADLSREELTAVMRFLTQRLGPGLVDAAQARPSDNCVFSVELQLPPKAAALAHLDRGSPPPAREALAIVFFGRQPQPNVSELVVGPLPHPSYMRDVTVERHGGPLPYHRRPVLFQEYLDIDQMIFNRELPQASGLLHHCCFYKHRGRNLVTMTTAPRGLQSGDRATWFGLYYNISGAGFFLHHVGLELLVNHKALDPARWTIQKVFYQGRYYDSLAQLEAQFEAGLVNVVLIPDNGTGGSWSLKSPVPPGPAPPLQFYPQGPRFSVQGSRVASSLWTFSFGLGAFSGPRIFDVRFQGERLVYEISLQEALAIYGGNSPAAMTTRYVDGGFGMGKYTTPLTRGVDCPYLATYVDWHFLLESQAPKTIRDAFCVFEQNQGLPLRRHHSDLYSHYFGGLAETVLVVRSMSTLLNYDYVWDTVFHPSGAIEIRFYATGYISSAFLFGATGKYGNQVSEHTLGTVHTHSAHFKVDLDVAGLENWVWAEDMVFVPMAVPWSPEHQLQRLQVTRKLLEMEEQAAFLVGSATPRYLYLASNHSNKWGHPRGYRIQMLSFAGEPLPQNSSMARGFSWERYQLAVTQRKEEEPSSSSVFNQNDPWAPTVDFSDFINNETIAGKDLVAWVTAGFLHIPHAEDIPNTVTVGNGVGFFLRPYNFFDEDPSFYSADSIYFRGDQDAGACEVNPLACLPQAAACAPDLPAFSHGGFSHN
Nature of the assay: AOC3 biochemical assay (MAO-Glo), human enzyme. The note with it: read-out: AOC3 IC50.
Description: as §1, with “AOC3” for “MAO-A”
An aliquot of 3 μL of the compound dilution is added to a 384 well plate (Optiplate, PS, flat bottom, white, PERKIN ELMER, #6007290) with a final DMSO concentration of 6.6%. Recombinant CHO cells, overexpressing the human (1500 cells/well), mouse (1000 cells/well) or rat (500 cells/well) AOC3 enzyme are diluted in reaction buffer and added in a volume of 15 μL to the wells. After incubation for 20 minutes at 37° C., 2 μL of MAO substrate (dissolved in DMSO at 16 mM, adjusted to assay concentration in reaction buffer to a final assay concentration of 20 μM) is added and further incubated for 60 minutes at 37° C. The turnover of the substrate is determined by the addition of 20 μL of the detection-mix which was generated by the addition of reconstitution buffer with esterase (PROMEGA, #V1402) to the luciferin detection reagent (PROMEGA, #V1402). After an incubation period of 20 minutes, the luminescent signal is measured with Envision 2104 Multilabel Reader (PERKIN ELMER).

On to `CCNC(=O)C1(C)CCN(S(=O)(=O)c2ccc(OC/C(=C\F)CN)nc2)CC1` [Example 23], for which the values for the IC50 in assay [1] and in assay [2] were over 50000 nM and 28 nM, respectively.

With `COC(=O)[C@H]1[C@@H]2CN(S(=O)(=O)c3ccc(OC/C(=C\F)CN)nc3)C[C@@H]21` [Example 35, trans-3-[6-((Z)-2-Aminomethyl-3-fluoro-allyloxy)-pyridine-3-sulfonyl]-3-aza-bicyclo[3.1.0]hexane-6-carboxylic acid methyl ester trifluoroacetate], the IC50 in assay [1] is over 50000 nM; in assay [2], 3 nM.

`CC1(C(=O)NCCF)CCN(S(=O)(=O)c2ccc(OC/C(=C\F)CN)nc2)CC1` [Example 53]: the IC50 in assay [1] was over 50000 nM; in assay [2], 17 nM.

Consider `COC1CCN(S(=O)(=O)c2ccc(OC/C(=C\F)CN)nc2)CC1` [Example 40], for which the results for the IC50 in assay [1] and in assay [2] were over 50000 nM and 4 nM, respectively.

Turning to `CC(=O)NC1CCN(S(=O)(=O)c2ccc(OC/C(=C\F)CN)nc2)C1` (centres unmarked) [Example 12], the IC50 in assay [1] was over 50000 nM; in assay [2], 15 nM.

Consider `NC/C(=C/F)COc1ccc(S(=O)(=O)N2CCC(CC(N)=O)CC2)cn1` [Example 50], for which the IC50 in assay [1] worked out at 29600 nM; in assay [2], 8 nM.

Turning to `CNC(=O)C1CCN(S(=O)(=O)c2ccc(OC/C(=C\F)CN)nc2)CC1` [Example 37, trifluoroacetate], the IC50 is over 50000 nM in assay [1] and 10 nM in assay [2].

Regarding `CNC(=O)[C@@]12C[C@@H]1CN(S(=O)(=O)c1ccc(OC/C(=C\F)CN)nc1)C2` [Example 29], the IC50 in assay [1] was over 50000 nM; in assay [2], 8 nM.

`CN(C)C(=O)CC1CCN(S(=O)(=O)c2ccc(OC/C(=C\F)CN)nc2)CC1` [Example 19]: the IC50 was over 50000 nM in assay [1] and 9 nM in assay [2].

In the case of `NC/C(=C/F)COc1ccc(S(=O)(=O)N2CCC(CC(=O)NCCO)CC2)cn1` [Example 52], the results for the IC50 in assay [1] and in assay [2] were 25900 nM and 17 nM, respectively.

For `CC1(C(=O)NC2CC2)CCN(S(=O)(=O)c2ccc(OC/C(=C\F)CN)nc2)CC1` [Example 56], the results for the IC50 in assay [1] and in assay [2] were over 50000 nM and 21 nM, respectively.

On to `COCCNC(=O)CC1CCN(S(=O)(=O)c2ccc(OC/C(=C\F)CN)nc2)CC1` [Example 54], for which the IC50 in assay [1] turned out to be 26900 nM; in assay [2] it was 19 nM.

In the case of `CC1(O)CN(S(=O)(=O)c2ccc(OC/C(=C\F)CN)nc2)C1` [Example 16], the IC50 stood at 12800 nM in assay [1] and 9 nM in assay [2].

On to `CCNC(=O)CC1CCN(S(=O)(=O)c2ccc(OC/C(=C\F)CN)nc2)CC1` [Example 30], for which the IC50 in assay [1] was 21400 nM; in assay [2], 15 nM.

In the case of `CCNC(=O)C1CCN(S(=O)(=O)c2ccc(OC/C(=C\F)CN)nc2)CC1` [Example 15], the IC50 was over 50000 nM in assay [1] and 9 nM in assay [2].

Take `CC(=O)N1CC(C2CCN(S(=O)(=O)c3ccc(OC/C(=C\F)CN)nc3)CC2)C1` [Example 9]: the figures for the IC50 in assay [1] and in assay [2] were over 50000 nM and 15 nM, respectively.

In the case of `NC/C(=C/F)COc1ccc(S(=O)(=O)N2CCCCC2)cn1` [Example 38], the IC50 in assay [1] was 32300 nM; in assay [2], 3 nM.

Consider `CC(=O)NCC1CCN(S(=O)(=O)c2ccc(OC/C(=C\F)CN)nc2)CC1` [Example 28], for which the results for the IC50 in assay [1] and in assay [2] were over 50000 nM and 13 nM, respectively.

As for `CC1(C(=O)NC2CCOCC2)CCN(S(=O)(=O)c2ccc(OC/C(=C\F)CN)nc2)CC1` [Example 48, 1-[6-((Z)-2-Aminomethyl-3-fluoro-allyloxy)-pyridine-3-sulfonyl]-4-methyl-piperidine-4-carboxylic acid (tetrahydropyran-4-yl)-amide trifluoroacetate], the IC50 in assay [1] was over 50000 nM; in assay [2], 33 nM.

With `CN(C)C(=O)C1CN(S(=O)(=O)c2ccc(OC/C(=C\F)CN)nc2)C1` [Example 25], the IC50 in assay [1] is over 50000 nM; in assay [2] it was 13 nM.

With `CC(F)(F)CNC(=O)CC1CCN(S(=O)(=O)c2ccc(OC/C(=C\F)CN)nc2)CC1` [Example 51], the IC50 in assay [1] amounted to 20100 nM; in assay [2] it was 12 nM.

For `NC/C(=C/F)COc1ccc(S(=O)(=O)N2CCC[C@H]2C(N)=O)cn1` [Example 13], the figures for the IC50 in assay [1] and in assay [2] were over 50000 nM and 43 nM, respectively.

`NC/C(=C/F)COc1ccc(S(=O)(=O)N2CCC(CC(=O)O)CC2)cn1` [Example 44, trifluoroacetate]: the results for the IC50 in assay [1] and in assay [2] were over 50000 nM and 110 nM, respectively.

Regarding `CC1(C(N)=O)CCN(S(=O)(=O)c2ccc(OC/C(=C\F)CN)nc2)CC1` [Example 49], the IC50 is over 50000 nM in assay [1] and 8 nM in assay [2].

Consider `NC/C(=C/F)COc1ccc(S(=O)(=O)N2CC[C@H](C(=O)N3CCOCC3)C2)cn1` [Example 21], for which the IC50 is over 50000 nM in assay [1] and 28 nM in assay [2].

`COC(=O)C1CCN(S(=O)(=O)c2ccc(OC/C(=C\F)CN)nc2)CC1` [Example 34]: the IC50 in assay [1] is 15200 nM; in assay [2], 4 nM.

Regarding `NC/C(=C/F)COc1ccc(S(=O)(=O)N2CCC(C(N)=O)CC2)cn1` [Example 7], the IC50 in assay [1] is over 50000 nM; in assay [2] it was 4 nM.

For the compound `NC/C(=C/F)COc1ccc(S(=O)(=O)N2CCC(C(=O)O)CC2)cn1` [Example 46], the IC50 in assay [1] is over 50000 nM; in assay [2], 493 nM.

With `NC/C(=C/F)COc1ccc(S(=O)(=O)N2CC[C@H](C(N)=O)C2)cn1` [Example 39], the results for the IC50 in assay [1] and in assay [2] were over 50000 nM and 6 nM, respectively.

Take `NC/C(=C/F)COc1ccc(S(=O)(=O)N2CCC[C@@H]2C(N)=O)cn1` [Example 18]: the IC50 in assay [1] is over 50000 nM; in assay [2], 50 nM.

Turning to `CN(C)C(=O)C1CCN(S(=O)(=O)c2ccc(OC/C(=C\F)CN)nc2)CC1` [Example 17], the IC50 in assay [1] is over 50000 nM; in assay [2], 16 nM.
